Measurements reported in ChEMBL document CHEMBL4689842, “EUbOPEN Chemogenomics Library wave 1” (2021).

Columns and labels:
Format in all cases: toxicity, cell-based
[1] = system: U2OS; assay: Incucyte cell viability with U2OS; details: human, 10 µM, compound concentration 10 uM
[2] = system: Fibroblast; assay: Incucyte cell viability with human fibroblast; details: 10 µM, compound concentration 10 uM
[3] = system: HEK-293T; assay: Incucyte cell viability with HEK293T; details: human, 10 µM, compound concentration 10 uM
[4] = 0 h, replicate number 1, timepoint 0 hours
[5] = 0 h, replicate number 2, timepoint 0 hours
[6] = 6 h, replicate number 1, timepoint 6 hours
[7] = 6 h, replicate number 2, timepoint 6 hours
[8] = 12 h, replicate number 1, timepoint 12 hours
[9] = 18 h, replicate number 1, timepoint 18 hours
[10] = 18 h, replicate number 2, timepoint 18 hours
[11] = 24 h, replicate number 1, timepoint 24 hours
[12] = 12 h, replicate number 2, timepoint 12 hours
[13] = 24 h, replicate number 2, timepoint 24 hours
Also: filed as whole numbers so only -1 and 0 and 1 occur.

Row | SMILES | Growth Rate [1, 4] | Growth Rate [1, 5] | Growth Rate [1, 6] | Growth Rate [1, 7] | Growth Rate [1, 8] | Growth Rate [1, 9] | Growth Rate [1, 11] | Growth Rate [2, 4] | Growth Rate [2, 12] | Growth Rate [2, 9] | Growth Rate [2, 11] | Growth Rate [3, 4] | Growth Rate [3, 5] | Growth Rate [3, 6] | Growth Rate [3, 8] | Growth Rate [3, 9] | Growth Rate [3, 11] | Growth Rate [2, 6] | Growth Rate [2, 8] | Growth Rate [2, 13] | other results
1 | O=c1ccn([C@@H]2O[C@H](COP(=O)([O-])OP(=O)([O-])O)[C@@H](O)[C@H]2O)c(=O)[nH]1.[Na+].[Na+] | 1 | 0 | 0 | 1 | 1 | 0 | 1 | 0 | 1 | 1 | 1 | 1 | 0 | 0 | 1 | 1 | 1 |  |  |  | Growth Rate [1, 10]: 1; Growth Rate [2, 7]: 1; Growth Rate [3, 7]: 1
2 | Cc1c(NC(=O)c2cc(C(N)=O)nc3cc(F)ccc23)c(C(F)(F)F)nn1Cc1ccc(C(C)(C)C)cc1 [BAY-588] |  | 0 |  |  | 1 | 0 | 1 | 0 |  | 0 | 0 | 0 |  | 0 | 0 | 0 | 0 | 0 | 0 |  | Growth Rate [1, 10]: 1
3 | CC(C)(Sc1ccc(CCN(CCCCC2CCCCC2)C(=O)NC2CCCCC2)cc1)C(=O)O [GW7647] | 0 |  |  | 1 | 1 | 1 | 1 | 0 |  | 1 | 0 | 1 | 0 | 0 | 0 | 0 | 0 | 0 | 0 | 1 | Growth Rate [3, 7]: 1; Growth Rate [3, 12]: 1; Growth Rate [3, 10]: 1
4 | Nc1cc(F)ccc1NC(=O)/C=C/c1cnn(C/C=C/c2ccccc2)c1 |  | 1 | 0 |  | 1 | 0 | 0 | 0 | 0 | 1 | 1 | 0 |  |  |  |  | 1 |  |  | 0 | Growth Rate [2, 10]: 0; Growth Rate [3, 7]: 0; Growth Rate [3, 12]: 1; Growth Rate [3, 10]: 1; Growth Rate [3, 13]: 0
5 | O=C1NCN(c2ccccc2)C12CCN(CC1COc3ccccc3O1)CC2 (centres undefined) [SPIROXATRINE] |  | 0 |  | 1 | 1 | 1 | 1 | 0 | 0 | 0 | 1 | 1 | 0 | 0 | 0 | 0 | 0 | 1 | 1 | 0 | Growth Rate [2, 5]: 1; Growth Rate [2, 7]: 0
6 | O=C1O[C@]2(CC[C@H](C(=O)Nc3ccn(-c4ccccc4F)n3)CC2)c2cnccc21 [MK-0557] |  | 0 |  | 1 | 1 | 1 | 0 | 0 | 1 | 0 | 0 | 0 |  | 0 | 0 | 0 | 0 | 0 | 0 | 1 | Growth Rate [1, 13]: 1; Growth Rate [2, 10]: 1
7 | c1ccc(Nc2nc3c(s2)CCCc2[nH]ncc2-3)nc1 |  | 0 | 1 | 0 | 1 | 0 | 0 |  |  | 1 | 0 | 1 | 0 | 0 | 0 | 0 | 0 | 0 | 1 |  | Growth Rate [1, 10]: 1; Growth Rate [3, 10]: 1; Growth Rate [3, 13]: 1
8 | CC(C)(C)OC(=O)N1CCCC1CNC1CCC(c2cc(F)ccc2F)(S(=O)(=O)c2ccc(Cl)cc2)CC1 (centres undefined) [GSI-NC] | 0 |  | 0 |  | 0 | 0 | 0 |  |  | 0 | 0 | 0 | 1 | 0 | 1 | 1 | 1 | 0 | 0 |  | Growth Rate [2, 5]: 0; Growth Rate [2, 7]: 1; Growth Rate [3, 12]: 0; Growth Rate [3, 13]: 0
